Experimental data from patent US10016444B2, “Molecules for bone tissue regeneration” (ISTITUTO ORTOPEDICO RIZZOLI, priority 2014, dated 2018).

What was measured:
[1] = tested on: human mesenchymal stem cells (MSCs); assay: Mineralisation assay on MSCs (Alizarin Red); assay type: cell-based; details: for mineralising capacity of MSCs (Alizarin Red): osteogenic conditions, dose dependence
Procedure: The evaluation of the functional capacity to deposit inorganic matrix on the part of MSC cells was evaluated with an in vitro mineralisation assay, according to an already consolidated method (Grassi F. et al. J. Tissue Eng Reg Med, 2013); MSC cells were maintained under culture for 21 days in the presence of […] of ascorbic acid, 2 mM of β-glycerophosphate and 100 nM of dexamethasone. […] Finally, the mineralised matrix was visualised by staining with Alizarin Red and quantified by spectrophotometry (Nanoquant, Tecan Group, Mannedorf, Switzerland).

[2] = Determination of the release of H2S by amperometry; assay type: physicochemical
Procedure: Amperometry—the potential release of H2S from the tested compound was evaluated by means of the amperometric method, using an Apollo-4000 Free Radical Analyzer (WPI) connected to mini-electrodes selective for H2S. The experiments were conducted at room temperature in phosphate buffer (NaH2PO4.H2O 0.128 g, Na2HPO4.12H2O 0.597 g, NaCl 4.388 g in 500 mL H2O) at pH 7.4. When required by the experimental protocol, 4 mM L-cysteine was also dissolved in the above-described phosphate buffer, maintaining the pH a 7.4. After stabilisation of the mini-electrodes selective for H2S in 10 mL of buffer, 100 μL of the compound DM-22 solubilised in DMSO was added at the final concentration of 1 mM. The formation of H2S was recorded for 20 minutes. The same experimental procedure was also carried out in the buffer containing L-cysteine. The correspondence between the amperometric currents (recorded in pA) and the concentrations of H2S was determined by means of suitable calibration curves previously obtained using increasing concentrations of NaHS (1 μM, 3 μM, 5 μM, 10 μM) at pH 4.
The curves related to the progressive release of H2S as a function of time were analysed by means of the following equation: Ct=Cmax−(Cmax·e−k·t)
Where Ct is the concentration at time t, Cmax is the maximum concentration obtained during the recording time and the constant k is 0.693/t½, and where t½ is the time it takes to reach half of Cmax. The values of Cmax and t½ were calculated by means of software: Graph Pad Prism 4.0 and expressed as a value±standard error.

[3] = tested on: human mesenchymal stem cells (MSCs); assay: Cell viability by Toluidine Blue staining of MSCs; assay type: cell-based; details: 72 h, 33 μM
From the text: At the end of the period of culture, moreover, the MSCs underwent staining with Toluidine Blue stain in order to evaluate the residual viability, which was then quantified by means of a spectrophotometer (Nanoquant, Tecan Group, Mannedorf, Switzerland).

[4] = tested on: human mesenchymal stem cells (MSCs); assay: Cell proliferation of MSCs by tritiated thymidine method; assay type: cell-based; details: 33 μM, both at 24 and 72 h after stimulation, vs unstimulated control
Procedure: Cell proliferation was measured in the MSCs by means of the tritiated thymidine method, in the presence or absence of stimuli, following a method already published in precedence (Gabusi E. et al. J Cell Physiol. 2011). […] After 48 h, tritiated thymidine (Amersham Pharmacia Biotech Italy, Milan) was added to each well at the final concentration of 2 mCi/ml and the culture further incubated for 18 h at 37° C. Lastly, the plates were aspirated through glass fibre filters and dried and the radioactivity incorporated in the cells, indicative of proliferative activity, was measured by means of a TopCount Microplate Scintillation Counter (Packard Instrument Company, Meriden, Conn.). The data are expressed as cpm (count per minute).

human osteoclasts (OCs) [5] = assay: Differentiation of human osteoclasts (TRAP staining count); assay type: cell-based; details: for inhibition of OC differentiation (number of TRAP-positive mature OCs): monocyte precursors with M-CSF and RANKL, 8 days, 1-33 μM
From the text: Human osteoclasts (OCs) were obtained according to a method already described and published (Grassi F. et al. J Cell Physiology 2011 April; 226(4):982-90). Briefly, the OCs were differentiated in vitro starting from monocytic precursors obtained from the peripheral blood of healthy, consenting donors; in particular, whole blood was stratified on Ficoll-Hypaque and the mononuclear cells were obtained by centrifugation. Monocytes were isolated from the latter by immunomagnetic separation of cells positive to the antigen CD11b via a MACS apparatus (Miltenyi Biotech, Calderara di Reno, Bologna). […] The number of mature OCs obtained for each condition of stimulation was then identified by means of a manual count, under a microscope, of the multinuclear cells positive to tartrate-resistant acid phosphatase (TRAP) staining.

human osteoclasts (OCs) [6] = details: OCs on Biocoat Osteologic slides, qualitative evaluation
Procedure: The ability of OCs to perform a physiological function of degrading the inorganic matrix was assessed by means of the ‘Pit Assay’, in which the OCs were cultured on Biocoat Osteologic (BD Bioscience) slides according to the procedure described in detail above.

[7] = tested on: human mesenchymal stem cells (MSCs)
Procedure: Briefly, 5 ml of bone marrow aspirate was obtained from consenting patients who underwent post-traumatic orthopaedic surgery. The mononuclear cells were obtained following centrifugation in a density gradient (Ficoll-Hypaque); the cells thus obtained were washed with PBS, resuspended in a D-MEM culture medium containing 15% FBS, then counted and seeded in plastic flasks at a concentration of 2×10^6 cells/flask T150. After 1 week, the non-adherent cells were removed and the adherent cells expanded in culture up to the concentration of 5000 MSC/cm^2 and used, finally, in the culture passage p.1 for the experiments.
Cytoxicity was evaluated in the culture after 24 h and 72 h by means of the lactate dehydrogenase (LDH) method, using a commercial kit (Cytotoxicity Detection Kit, Roche, Milan). In order to avoid interferences due to components present in serum, the cells were maintained under low serum conditions (5%) in the culture medium.

SMILES: [Ca+2].[Cl-].[Cl-] [calcium chloride, reference compound]
- mineralising capacity of MSCs (Alizarin Red) ([1]; 21 days): respond as expected

SMILES: O=C(NCCCC(O)(P(=O)(O)O)P(=O)(O)O)c1ccc(N=C=S)cc1 [DM-22]
- concentration of H2S detected after 20 minutes of incubation ([2]; 1 mM compound in phosphate buffer pH 7.4, room temperature, no L-cysteine): approximately 1.5 μM
- maximum concentration of H2S detected after 20 minutes of incubation ([2]; 1 mM compound in phosphate buffer pH 7.4 in the presence of 4 mM L-cysteine): approximately 45 μM
- liberation of H2S ([2]; summary statement): capable of liberating H2S with slow-release kinetics
- cell viability (Toluidine Blue) compared to the unstimulated control [3]: does not bring about any decrease
- proliferative activity in MSCs [4]: does not induce any significant decrease in proliferation
- mineralisation compared to MSCs treated with alendronate ([1]; 21 days, concentrations of 3.3, 10 and 33 μM): significantly greater mineralisation
- degree of mineralisation compared to control MSCs ([1]; 21 days, maximum concentration of 33 μM): significantly greater than that of the control MSCs
- mineralising capacity of MSCs (Alizarin Red) ([1]; 21 days): dose-dependent capacity to induce mineralisation
- range of concentration in which it stimulates the anabolic function and significantly inhibits osteoclasts ([1]; summary statement): 10 to 33 µM
- times less effective than alendronate in suppressing OCs (human osteoclasts (OCs) [5]; concentrations being equal): 33-100 times
- inhibition of OC differentiation (number of TRAP-positive mature OCs) (human osteoclasts (OCs) [5]): statistically significant only at the highest concentration (33 μM)
- inhibition of erosive capacity of OCs (pits, qualitative) (human osteoclasts (OCs) [6]): only at the concentrations of 10 and 33 μM do the eroded areas disappear completely
- cytotoxicity (LDH assay) ([7]; 1-33 μM, at both 24 h and 72 h, low serum (5%)): does not induce any cytotoxicity
- cytotoxicity (LDH assay) compared to the basal level induced by serum deprivation ([7]; 24 h): significant protection
- cellular toxicity (LDH assay) ([7]; 72 h, 33 μM): completely absent

SMILES: [Na+].[SH-] [NaHS, reference compound]
- mineralising capacity of MSCs (Alizarin Red) ([1]; 21 days): respond as expected

SMILES: NCCCC(O)(P(=O)(O)O)P(=O)(O)O [alendronate, reference compound]
- cell viability (Toluidine Blue) compared to the unstimulated control [3]: significant decrease in cell viability
- proliferative activity in MSCs [4]: significant inhibition of proliferative activity
- inhibition of OC differentiation (number of TRAP-positive mature OCs) (human osteoclasts (OCs) [5]): strong capacity to inhibit OC differentiation starting from the lowest concentration used in the study (1 μM)
